Structures are written as SMILES.

The values below come from patent US20190381014A1, “ISOQUINOLINONE COMPOUNDS AND USE THEREOF IN PREPARATION OF ANTIVIRAL DRUGS” (Ginkgo Pharma Co., Ltd., priority 2016, published 2019).

The first experiment concerns HBsAg. In words: HBsAg inhibition in HepG2.2.15 culture supernatant (ELISA). It counts as cell-based, HBV. Particulars: HepG2.2.15 cells, supernatant on day 8, ELISA; read-out: Activity in HBsAg inhibition, EC50. The method, then:
Test method: HepG2.2.15 cell line was seeded into 96-well plates at 1.5×10^4 cells/well. On the following day, the cells were treated with a three-fold serial dilution series of the compounds at eight concentration points, and 2 duplicate wells were determined in parallel. The final DMSO concentration in the culture solution was 0.5%. On the fifth day, the culture solution was replaced with fresh solution containing the compounds. On the eighth day, the culture supernatant was collected and the HBsAg in the culture supernatant was detected by ELISA. The percent inhibition was calculated with respect to the blank control.
In the case of `COc1cc2c(cc1OC1CCOCC1)CC(C(C)C)n1cc(C(=O)O)c(=O)cc1-2` (racemic) [Compound I-3-rac, 6-isopropyl-10-methoxy-2-oxo-9-((tetrahydro-2H-pyran-4-yl)oxy)-6,7-dihydro-2H-pyrido[2,1-α]isoquinoline-3-carboxylic acid], the EC50 was 7.04 nM.

`COCC1(COc2cc3c(cc2Cl)-c2cc(=O)c(C(=O)O)cn2C(C(C)C)C3)CC1` (racemic) [Compound I-24-rac, 10-chloro-6-isopropyl-9-((1-(methoxymethyl)cyclopropyl)methoxy)-2-oxo-6,7-dihydro-2H-pyrido[2,1-α]isoquinoline-3-carboxylic acid]: the EC50 stood at 5.78 nM.

For the compound `COc1cc2c(cc1O[C@@H]1CCOC1)CC(C(C)(C)C)n1cc(C(=O)O)c(=O)cc1-2` (mixture of isomers) [Compound I-28-rac, 6-(tert-butyl)-10-methoxy-2-oxo-9-(((R)-tetrahydrofuran-3-yl)oxy)-6,7-dihydro-2H-pyrido[2,1-α]isoquinoline-3-carboxylic acid], the EC50 was 5.78 nM.

Staying with this experiment, now noted: Hepatitis B virus, HepG2.2.15, 192 h, read-out: Activity in HBsAg inhibition, EC50.
Turning to `COc1cc2c(cc1OC1CCC1)C[C@@H](C(C)C)n1cc(C(=O)O)c(=O)cc1-2` [Compound I-20, (S)-9-cyclobutoxy-6-isopropyl-10-methoxy-2-oxo-6,7-dihydro-2H-pyrido[2,1-α]isoquinoline-3-carboxylic acid], the EC50 was 2.56 nM.

For the compound `COC1CC(COc2cc3c(cc2Cl)-c2cc(=O)c(C(=O)O)cn2C(C(C)C)C3)C1` (racemic) [Compound I-26-rac, 10-chloro-6-isopropyl-9-((3-methoxycyclobutyl)methoxy)-2-oxo-6,7-dihydro-2H-pyrido[2,1-α]isoquinoline-3-carboxylic acid], the EC50 was found to be 7.56 nM.

With `COc1cc2c(cc1O[C@H]1C[C@@H](OC)C1)C[C@@H](C(C)C)n1cc(C(=O)O)c(=O)cc1-2` [Compound I-19, (S)-6-isopropyl-10-methoxy-9-((1 s, 3R)-3-methoxycyclobutoxy)-2-oxo-6,7-dihydro-2H-pyrido[2,1-α]isoquinoline-3-carboxylic acid], the half-maximal effective concentration (EC50) is 2.89 nM.

For `COCC1(COc2cc3c(cc2OC)-c2cc(=O)c(C(=O)O)cn2C(C(C)(C)C)C3)COC1` (racemic) [Compound I-31-rac, 6-(tert-butyl)-10-methoxy-9-((3-(methoxymethyl)oxetan-3-yl)methoxy)-2-oxo-6,7-dihydro-2H-pyrido[2,1-α]isoquinoline-3-carboxylic acid], the EC50 was found to be 5.98 nM.

On to `COc1cc2c(cc1O[C@H]1C[C@H](OC)C1)CC(C(C)(C)C)n1cc(C(=O)O)c(=O)cc1-2` (mixture of isomers) [Compound I-29-rac, 6-(tert-butyl)-10-methoxy-9-((1R,3R)-3-methoxycyclobutoxy)-2-oxo-6,7-dihydro-2H-pyrido[2,1-α]isoquinoline-3-carboxylic acid], for which the 50% effective concentration (EC50) was found to be 6.45 nM.

With `COCC1(COc2cc3c(cc2OC)-c2cc(=O)c(C(=O)O)cn2C(C(C)(C)COC)C3)CC1` (racemic) [Compound I-54-rac, 10-methoxy-6-(1-methoxy-2-methylpropan-2-yl)-9-((1-(methoxymethyl)cyclopropyl)methoxy)-2-oxo-6,7-dihydro-2H-pyrido[2,1-α]isoquinoline-3-carboxylic acid], the concentration giving a half-maximal response (EC50) was found to be 5.34 nM.

In the case of `COCC1(COc2cc3c(cc2OC)-c2cc(=O)c(C(=O)O)cn2C(C(C)C)C3)CC1` (racemic) [Compound I-6-rac, 6-isopropyl-10-methoxy-9-((1-(methoxymethyl)cyclopropyl)methoxy)-2-oxo-6,7-dihydro-2H-pyrido[2,1-α]isoquinoline-3-carboxylic acid], the EC50 was 4.12 nM.

For the compound `COCC1(COc2cc3c(cc2OC)-c2cc(=O)c(C(=O)O)cn2C(C(C)(C)COC)C3)COC1` (racemic) [Compound I-55-rac, 10-methoxy-6-(1-methoxy-2-methylpropan-2-yl)-9-((3-(methoxymethyl)oxetan-3-yl)methoxy)-2-oxo-6,7-dihydro-2H-pyrido[2,1-α]isoquinoline-3-carboxylic acid], the EC50 was found to be 7.23 nM.

For `COc1cc2c(cc1O[C@@H]1CCOC1)CC(C(C)C)n1cc(C(=O)O)c(=O)cc1-2` (mixture of isomers) [Compound I-2-rac, 6-isopropyl-10-methoxy-2-oxo-9-(((R)-tetrahydrofuran-3-yl)oxy)-6,7-dihydro-2H-pyrido[2,1-α]isoquinoline-3-carboxylic acid], the 50% effective concentration (EC50) was determined as 3.26 nM.

On to `COCC(C)(C)C1Cc2cc(O[C@@H]3CCOC3)c(OC)cc2-c2cc(=O)c(C(=O)O)cn21` (mixture of isomers) [Compound I-52-rac, 10-methoxy-6-(1-methoxy-2-methylpropan-2-yl)-2-oxo-9-(((R)-tetrahydrofuran-3-yl)oxy)-6,7-dihydro-2H-pyrido[2,1-α]isoquinoline-3-carboxylic acid], for which the half-maximal effective concentration (EC50) came out at 7.57 nM.

Consider `COc1cc2c(cc1OCC1CC(OC)C1)CC(C(C)C)n1cc(C(=O)O)c(=O)cc1-2` (racemic) [Compound I-8-rac, 6-isopropyl-10-methoxy-9-((3-methoxycyclobutyl)methoxy)-2-oxo-6,7-dihydro-2H-pyrido[2,1-α]isoquinoline-3-carboxylic acid], for which the EC50 is 5.59 nM.

Turning to `COc1cc2c(cc1OCCCC(C)=O)CC(C(C)C)n1cc(C(=O)O)c(=O)cc1-2` (racemic) [Compound I-9-rac, 6-isopropyl-10-methoxy-2-oxo-9-((4-oxopentyl)oxy)-6,7-dihydro-2H-pyrido[2,1-α]isoquinoline-3-carboxylic acid], the EC50 was 3.71 nM.

In the case of `CO[C@H]1C[C@H](Oc2cc3c(cc2Cl)-c2cc(=O)c(C(=O)O)cn2C(C(C)C)C3)C1` (mixture of isomers) [Compound I-23-rac, 10-chloro-6-isopropyl-9-((1R,3R)-3-methoxycyclobutoxy)-2-oxo-6,7-dihydro-2H-pyrido [2,1-α]isoquinoline-3-carboxylic acid], the EC50 was found to be 6.83 nM.

For `COCC1(COc2cc3c(cc2OC)-c2cc(=O)c(C(=O)O)cn2C(C(C)C)C3)COC1` (racemic) [Compound I-7-rac, 6-isopropyl-10-methoxy-9-((3-(methoxymethyl)oxetan-3-yl)methoxy)-2-oxo-6,7-dihydro-2H-pyrido[2,1-α]isoquinoline-3-carboxylic acid], the EC50 is 4.68 nM.

Regarding `COCC(C)(C)C1Cc2cc(OCC3CC(OC)C3)c(OC)cc2-c2cc(=O)c(C(=O)O)cn21` (racemic) [Compound I-56-rac, 10-methoxy-6-(1-methoxy-2-methylpropan-2-yl)-9-((3-methoxycyclobutyl)methoxy)-2-oxo-6,7-dihydro-2H-pyrido[2,1-α]isoquinoline-3-carboxylic acid], the EC50 worked out at 5.95 nM.

As to `COCCC#Cc1cc2c(cc1OC)-c1cc(=O)c(C(=O)O)cn1[C@H](C(C)C)C2` [Compound I-12, (S)-6-isopropyl-10-methoxy-9-(4-methoxybut-1-yn-1-yl)-2-oxo-6,7-dihydro-2H-pyrido [2,1-α]isoquinoline-3-carboxylic acid], the half-maximal effective concentration (EC50) was determined as 3.83 nM.

Regarding `COc1cc2c(cc1OC1COC1)CC(C(C)C)n1cc(C(=O)O)c(=O)cc1-2` (racemic) [Compound I-4-rac, 6-isopropyl-10-methoxy-9-(oxetan-3-yloxy)-2-oxo-6,7-dihydro-2H-pyrido[2,1-α]isoquinoline-3-carboxylic acid], the EC50 was 3.62 nM.

On to `COCC(C)(C)C1Cc2cc(O[C@H]3C[C@H](OC)C3)c(OC)cc2-c2cc(=O)c(C(=O)O)cn21` (mixture of isomers) [Compound I-53-rac, 10-methoxy-6-(1-methoxy-2-methylpropan-2-yl)-9-((1R,3R)-3-methoxycyclobutoxy)-2-oxo-6,7-dihydro-2H-pyrido[2,1-α]isoquinoline-3-carboxylic acid], for which the EC50 amounted to 6.65 nM.

Consider `COc1cc2c(cc1OC1CCCC1)CC(C(C)C)n1cc(C(=O)O)c(=O)cc1-2` (racemic) [Compound I-10-rac, 9-(cyclopentyloxy)-6-isopropyl-10-methoxy-2-oxo-6,7-dihydro-2H-pyrido[2,1-α]isoquinoline-3-carboxylic acid], for which the EC50 was determined as 3.78 nM.

Regarding `COc1cc2c(cc1O[C@H]1C[C@H](OC)C1)CC(C(C)C)n1cc(C(=O)O)c(=O)cc1-2` (mixture of isomers) [Compound I-5-rac, 6-isopropyl-10-methoxy-9-((1R,3S)-3-methoxycyclobutoxy)-2-oxo-6,7-dihydro-2H-pyrido[2,1-α]isoquinoline-3-carboxylic acid], the EC50 was determined as 3.56 nM.

With `COc1cc2c(cc1OCC1CC(OC)C1)CC(C(C)(C)C)n1cc(C(=O)O)c(=O)cc1-2` (racemic) [Compound I-32-rac, 6-(tert-butyl)-10-methoxy-9-((3-methoxycyclobutyl)methoxy)-2-oxo-6,7-dihydro-2H-pyrido[2,1-α]isoquinoline-3-carboxylic acid], the 50% effective concentration (EC50) was determined as 7.31 nM.

In the case of `COc1cc2c(cc1C#CC1CC1)CC(C(C)C)n1cc(C(=O)O)c(=O)cc1-2` (racemic) [Compound I-11-rac, 9-(cyclopropylethynyl)-6-isopropyl-10-methoxy-2-oxo-6,7-dihydro-2H-pyrido[2,1-α]isoquinoline-3-carboxylic acid], the EC50 amounted to 2.61 nM.

On to `CC(C)C1Cc2cc(O[C@@H]3CCOC3)c(Cl)cc2-c2cc(=O)c(C(=O)O)cn21` (mixture of isomers) [Compound I-22-rac, 10-chloro-6-isopropyl-2-oxo-9-(((R)-tetrahydrofuran-3-yl)oxy)-6,7-dihydro-2H-pyrido [2,1-α]isoquinoline-3-carboxylic acid], for which the EC50 amounted to 5.46 nM.

In the case of `COc1cc2c(cc1O[C@H]1CCOC1)CC(C(C)C)n1cc(C(=O)O)c(=O)cc1-2` (mixture of isomers) [Compound I-1-rac, 6-isopropyl-10-methoxy-2-oxo-9-(((S)-tetrahydrofuran-3-yl)oxy)-6,7-dihydro-2H-pyrido[2,1-α]isoquinoline-3-carboxylic acid], the EC50 is 5.74 nM.

For orientation: EC50 means the concentration giving half of the maximal effect.
